Entries after “also recorded” stand apart in the source; their conditions may differ.
Columns and labels:
[1] = test system: mono-ADP-ribosyltransferases; conditions: literature value; read-out: reported IC50 concentration; cited from earlier work
mSir2α = molecular target: T1, mSir2α (Mus musculus, UniProt Q923E4); assay: ADP-ribosylation assay, sensitivity of mSir2α to poly- and mono-ADP-ribosylation inhibitors (histone H2B, 32P-NAD); assay type: biochemical; conditions: 40 μM
T1 construct: ADP-ribosylase activity of bacterial recombinant full-length proteins of ySir2p and mSir2α was determined in in vitro assays; 6×His; made in house; host or cells: E. coli BL21 (DE3) pLysS with an extra copy of arginine tRNA gene, pET28a
T1 sequence (Q923E4 1-737): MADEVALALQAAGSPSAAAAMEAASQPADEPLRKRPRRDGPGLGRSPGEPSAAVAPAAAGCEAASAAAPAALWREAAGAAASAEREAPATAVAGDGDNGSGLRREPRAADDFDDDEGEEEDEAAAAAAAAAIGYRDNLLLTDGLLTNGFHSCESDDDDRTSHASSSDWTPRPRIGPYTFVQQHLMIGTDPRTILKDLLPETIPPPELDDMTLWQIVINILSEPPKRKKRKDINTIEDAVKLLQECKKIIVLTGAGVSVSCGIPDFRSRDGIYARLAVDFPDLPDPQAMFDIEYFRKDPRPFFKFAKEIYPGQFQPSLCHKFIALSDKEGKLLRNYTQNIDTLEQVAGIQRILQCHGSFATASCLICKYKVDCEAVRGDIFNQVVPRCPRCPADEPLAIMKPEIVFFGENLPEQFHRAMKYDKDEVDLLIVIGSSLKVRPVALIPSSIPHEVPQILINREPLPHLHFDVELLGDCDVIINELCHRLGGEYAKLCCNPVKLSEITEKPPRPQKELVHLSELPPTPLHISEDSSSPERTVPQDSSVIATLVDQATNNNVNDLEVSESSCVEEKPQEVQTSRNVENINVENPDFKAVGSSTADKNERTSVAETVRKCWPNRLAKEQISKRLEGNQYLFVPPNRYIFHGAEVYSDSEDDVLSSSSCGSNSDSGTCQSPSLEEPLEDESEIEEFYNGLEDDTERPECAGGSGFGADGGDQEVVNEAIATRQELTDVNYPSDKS
Protocol: (§1) The typical reaction was performed in 50 or 100 μl of the buffer containing 5 mM Tris-HCl [pH8.0 or 9.0], 4 mM MgCl2, 0.2 mM DTT, 1 μM cold β-NAD^+ (SIGMA®) and 8 μCi nicotinamide adenine dinucleotide 5′[α-^32P]triphosphate (NAD) as a donor of ADP-ribose (˜1000 Ci/mmol, Amersham Pharmacia Biotech). To check the sensitivity to poly- or mono-ADP-ribosylation inhibitors, 3-aminobenzamide (ICN Pharmaceuticals, CA), benzamide, novobiocin and coumermycin A1 (SIGMA®) were added to the reactions prior to adding Sir2 proteins, respectively. The wild type or mutant recombinant proteins (0.5-1 μg for ySir2p and 10 μg of mSir2α) were added with 4 μg of each histone purchased from Roche Molecular Biochemicals (Indianapolis, Ind.). For the peptide experiments, 5-10 μg of unacetylated or acetylated N-terminal tail peptides (amino acids 1-20) of H3 and H4 purchased from Upstate Biotechnology™ (Lake Placid, N.Y.) were used as substrates of the yeast and mouse Sir2 recombinant proteins.
To analyze histone modification, 25 μl of 100% trichloroacetic acid (TCA) solution was mixed to the reaction mixture and left on ice for 15 min. The protein precipitates were centrifuged at 4° C. and washed with 5 or 20% TCA solution twice. The pellets were dissolved in 15 μl of Leammli's sample buffer and boiled for 1.5 min. The proteins were electrophoresed in a 10-20% gradient SDS-PAGE gel. The gel was stained with COOMASSIE® Brilliant Blue R-250 (GibcoBRL Life Technologies™, Frederick, Md.) to check equal loading of histones, dried, and exposed to KODAK® X-OMAT film.
The sensitivity of the ADP-ribosylase activity of mSir2α to poly ADP-ribosylation inhibitors (3-aminobenzamide and benzamide) and mono-ADP-ribosylation inhibitors (novobiocin and coumermycin A1) was evaluated. (FIG. 4F).

Sir2p [2] = molecular target: T2, Sir2p (Saccharomyces cerevisiae, UniProt P06700); assay: NAD-dependent deacetylation of di-acetylated H3 peptide by recombinant yeast Sir2p (HPLC); assay type: biochemical; conditions: 200 μM
T2 construct: purified recombinant yeast (rSir2p) protein, mouse Sir2 (mSir2α) proteins and vector controls; 6×His; made in house; host or cells: E. coli BL21 (DE3), pET28a
Protocol: (§2) The typical reaction of Sir2 deacetylase activity was performed in 50 μl of buffer containing 50 mM Tris-HCl [pH 9.0], 4 mM MgCl2, 0.2 mM DTT, variable concentration of cold nicotinamide adenine dinucleotide (NAD) or NAD derivatives (SIGMA®, MO), 5-10 μg of the purified recombinant Sir2 proteins, and 10 μg of the histone H3 N-terminal tail peptide (amino acid 1-20) di-acetylated at positions 9 and 14 (Upstate Biotechnology™, NY). […] To detect the ADP-ribosylation activity, 8 μCi of NAD 5′-[α-^32P]triphosphate (˜1000 Ci/mmol, Amersham Pharmacia Biotech™, NJ) was added to the same reaction containing 1 μM cold NAD. Histone H3 protein (4 μg) (Roche Molecular Biochemicals™, IN) were used for this assay. All reaction mixtures were incubated at room temperature for 1 hr. Trichostatin A and coumermycin A1 (SIGMA™) were prepared in dimethylsulfoxide (DMSO, SIGMA®), and 5 μl of solvent or inhibitor was added to the reactions prior to adding Sir2 proteins.
After the incubation, the products were precipitated at −20° C. overnight by adding 50 μl of distilled water and 25 μl of 100% trichloroacetic acid (TCA) solution. For high pressure liquid chromatography (HPLC), the precipitates were reconstituted in 5% CH3CN and 0.1% trifluoroacetic acid (TFA) and run in the gradient concentration between 0.05% TFA and 0.043% TFA plus 80% CH3CN on Hewlett Packard Model 1100 HPLC system with 214TP52 column (VYDAC, CA). The chromatograms at the absorbance of 210 nm were digitally recorded and analyzed by Hewlett Packard ChemStation™ system (version A.06.03 [509]). Fractions of samples were collected every 1 min by Gilson™ Fraction Collector Model 203. Peptide sequencing was done by the Applied Biosystems PROCISE® 494 HT protein sequencing system. PTH amino acid chromatograms were recorded and analyzed by the ABI Model 610A2.1 data integration/analysis system.
The experiments employed purified recombinant Sir2p in a reaction with NAD and a peptide of the histone H3 amino-terminal tail (residues 1-20) di-acetylated at lysines 9 and 14. These lysines are hypoacetylated in silenced chromatin and mutations at these positions to glycine greatly reduce silencing in vivo (Thompson, J. S., et al., Nature 369: 245-247 (1994)). The products of a reaction containing 5 μg of recombinant yeast Sir2p (79 pmoles) (FIG. 8a), 10 μg of the H3 peptide (4.2 nmoles) increasing concentrations of NAD were analyzed s by high pressure liquid chromatography (HPLC).

Sir2p [3] = molecular target: T2, Sir2p; assay: ADP-ribosylation and NAD hydrolysis by recombinant yeast Sir2p (intact histone H3, H3 peptide; SDS-PAGE, TLC); assay type: biochemical; conditions: 200 μM; for inhibition of NAD hydrolysis by Sir2p: H3 peptide, TLC; for inhibition of ADP-ribosylation by Sir2p: intact histone H3 and H3 peptide
Protocol: as §1, §2
Electron-spray mass spectroscopy (also referred to herein as mass spectroscopy) was done on the PE Sciex Model API365™ system. Matrix assisted laser desorption/ionization (MALDI) mass spectroscopy can also be used. The electron-spray mass spectroscopy data were analyzed by the BioMultiView Program™ (version 1.3.1). To detect the ADP-ribosylated intact H3 protein, the pellets were dissolved in 15 μl of Leammli sample buffer, boiled for 1.5 min and electrophoresed in a 10-20% gradient SDS-PAGE gel. The gel was stained with Coomassie Brilliant Blue to check equal loading of histones, dried, and exposed to KODAK® X-OMAT film. […]
The effects of a known inhibitor of mono-ADP-ribosyltransferases, coumermycin A1 (Banasik, M., et al., Mol. Cell. Biochem. 138: 185-187 (1994)) was evaluated. […]

T2 sequence (P06700 whole entry): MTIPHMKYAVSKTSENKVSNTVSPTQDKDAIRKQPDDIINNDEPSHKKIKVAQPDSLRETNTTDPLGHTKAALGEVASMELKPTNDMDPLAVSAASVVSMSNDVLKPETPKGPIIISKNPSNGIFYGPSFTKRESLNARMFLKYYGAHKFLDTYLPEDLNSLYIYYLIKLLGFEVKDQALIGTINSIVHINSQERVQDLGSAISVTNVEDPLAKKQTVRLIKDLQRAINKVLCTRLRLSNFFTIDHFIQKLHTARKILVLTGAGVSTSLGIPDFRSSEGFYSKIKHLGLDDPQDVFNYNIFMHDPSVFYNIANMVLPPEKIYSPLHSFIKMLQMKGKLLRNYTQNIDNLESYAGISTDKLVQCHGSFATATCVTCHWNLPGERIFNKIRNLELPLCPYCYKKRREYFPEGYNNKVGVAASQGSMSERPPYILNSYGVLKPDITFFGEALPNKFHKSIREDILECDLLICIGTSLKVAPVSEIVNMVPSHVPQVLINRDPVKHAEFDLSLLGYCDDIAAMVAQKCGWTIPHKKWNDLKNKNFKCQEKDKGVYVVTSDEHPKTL

CO[C@H]1[C@H](OC(=O)c2ccc(C)[nH]2)[C@H](O)[C@@H](Oc2ccc3c(O)c(NC(=O)c4c[nH]c(C(=O)Nc5c(O)c6ccc(O[C@H]7OC(C)(C)[C@@H](OC)[C@H](OC(=O)c8ccc(C)[nH]8)[C@@H]7O)c(C)c6oc5=O)c4C)c(=O)oc3c2C)OC1(C)C [coumermycin A1]
IC50 [1]: 27 µM
inhibition of ADP-ribosylation by mSir2α (mSir2α): strongly inhibited
inhibition of deacetylation of the H3 tail by Sir2p (Sir2p [2]): did not inhibit; also recorded: not capable of inhibiting
inhibition of NAD hydrolysis by Sir2p (Sir2p [3]): inhibited
inhibition of NAD hydrolysis by Sir2p (Sir2p [3]; listed as Coumermycin A1): inhibit
inhibition of ADP-ribosylation by Sir2p (Sir2p [3]): inhibited
inhibition of ADP-ribosylation by Sir2p (Sir2p [3]; listed as Coumermycin A1): inhibit
